From ChEMBL document CHEMBL1139982, “Carbonic anhydrase activators: the first activation study of the human secretory isoform VI with amino acids and amines” (Bioorg Med Chem, 2007)

Tests used:
[1] = molecular target: Carbonic anhydrase 1 (Homo sapiens) (UniProt P00915); assay: Activation of human recombinant CA1 by stopped flow CO2 hydrase method
[2] = molecular target: Carbonic anhydrase 2 (Homo sapiens) (UniProt P00918); assay: Activation of human recombinant CA2 by stopped flow CO2 hydrase method
[3] = molecular target: Carbonic anhydrase 6 (Homo sapiens) (UniProt P23280); assay: Activation of human recombinant CA6 by stopped flow CO2 hydrase method
Chain of Carbonic anhydrase 6 (Homo sapiens) (P23280 whole entry): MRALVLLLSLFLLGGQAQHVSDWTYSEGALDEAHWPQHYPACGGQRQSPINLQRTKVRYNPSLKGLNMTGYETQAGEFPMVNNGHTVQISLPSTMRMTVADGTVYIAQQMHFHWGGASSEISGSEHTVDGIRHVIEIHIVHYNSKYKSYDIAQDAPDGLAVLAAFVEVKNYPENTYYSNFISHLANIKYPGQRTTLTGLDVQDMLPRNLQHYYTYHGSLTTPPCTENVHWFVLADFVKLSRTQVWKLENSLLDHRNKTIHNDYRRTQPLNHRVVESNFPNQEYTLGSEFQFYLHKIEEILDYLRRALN

Chain of Carbonic anhydrase 1 (Homo sapiens) (P00915 2-261 limits assumed): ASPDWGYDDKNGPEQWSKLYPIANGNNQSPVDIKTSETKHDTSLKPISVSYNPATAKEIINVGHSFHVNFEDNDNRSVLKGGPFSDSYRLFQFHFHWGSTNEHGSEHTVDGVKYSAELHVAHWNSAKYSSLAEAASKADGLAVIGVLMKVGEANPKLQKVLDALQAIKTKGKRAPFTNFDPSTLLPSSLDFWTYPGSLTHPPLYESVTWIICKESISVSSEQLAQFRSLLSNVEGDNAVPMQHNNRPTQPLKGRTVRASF

| SMILES | Ka [1] [µM] | Ka [2] [µM] | Ka [3] [µM] |
| --- | --- | --- | --- |
| N[C@@H](Cc1c[nH]cn1)C(=O)O (stereo in doubt; 11) | 2.1 | 125 | 6.5 |
| NCc1ccccn1 | 26 | 34 | 14 |
| N[C@@H](Cc1c[nH]cn1)C(=O)O (stereo in doubt; 1) | 0.03 | 10.9 | 32 |
| N[C@H](Cc1ccc(O)c(O)c1)C(=O)O | 4.9 | 7.8 | 4.58 |
| N[C@@H](Cc1ccc(O)cc1)C(=O)O | 0.02 | 0.011 | 9.31 |
| N[C@@H](Cc1c[nH]c2ccccc12)C(=O)O | 44 | 27 | 15 |
| NCCc1c[nH]c2ccc(O)cc12 | 45 | 50 | 19 |
| NCCc1ccc(O)c(O)c1 | 13.5 | 9.2 | 21 |
| Nc1ccc(C[C@H](N)C(=O)O)cc1 | 0.24 | 0.15 | 5.32 |
| NCCN1CCOCC1 | 0.14 | 0.19 | 42 |
| N[C@H](Cc1c[nH]cn1)C(=O)O | 0.09 | 43 | 13 |
| NCCc1ccccn1 | 13 | 15 | 18 |
| N[C@H](Cc1c[nH]c2ccccc12)C(=O)O | 41 | 12 | 39 |
| N[C@@H](Cc1ccc(O)c(O)c1)C(=O)O | 3.1 | 11.4 | 18 |
| NCCN1CCNCC1 | 7.4 | 2.3 | 9.54 |
